Test results as given in US20160297828A1, “SPIROCYCLIC COMPOUNDS CONTAINING SPIRO[INDOLYL-3,1'-PYRROLO[3,4-C]PYRROLE] CORE AND SULPHUR-CONTAINING AMINO ACID RESIDUES” (priority 2013, published 2016).
Values joined by “and” are separate entries in the source; they are usually repeats but may differ in a detail not shown here. Identical values can stand only once. Marks after values point to notes of the source that are not given here.

Key:
Type in all cases: in vivo
rats = assay: Acute toxicity in rats; settings: for Effect (died/total): 2 weeks observation
Procedure: (§1) The acute toxicity study was conducted when administered compounds SI-86 to rats into the stomach at doses of 3500 and 4000 mg/kg. Each dose was tested in 4 animals. The duration of observation of rats after administration of test compound was 2 weeks.

Acute toxicity in rats = settings: rat, in vivo, oral; rats
Procedure: as §1

[1] = test system: neuron-specific enolase (NSE); assay: Neuron-specific enolase (NSE) activity in rats with intracerebral hemorrhage (ELISA); settings: for NSE activity (dynamics of neurodestructive changes): acute cerebral hemorrhage, n = 7; for enzyme activity decreased in relation to the control pathology group / efficiency in reducing NSE better than citocoline: hemorrhage
Procedure: The derivative of 3,2′-spiro-pyrrolo-2-oxindole was investigated in conventionally effective dose of 10 mg/kg […] (iv)—dose that according to the results of our previous studies provided maximum antihypoxic activity of SI-86 compound. Reference drugs were injected intraperitoneally (ip). […] Autoblood was injected to rats with control pathology and 0.9% NaCI solution was administered as therapy calculated for 2 ml/kg ip.
Psevdooperated rats were exposed to all interventions (anesthesia, craniotomy) with the exception of autoblood administration that leveled traumatic impact of experimental conditions.
To determine neuron-specific enolase, the specific marker of cerebral ischemia,—for corresponding period (4 th and 21 st day of CVA) in rats, blood was sampled by sagittal sinus puncture (0.2-0.4 ml). NSE activity was measured by ELISA using a set NSE EIA KIT (DAI, USA) on the instrument of the company “Hipson” (Czech Republic).

[2] = test system: rats with intracerebral hemorrhage; assay: Conditioned response of passive avoidance (CRPA) in rats with intracerebral hemorrhage; settings: 21st day, n = 15
Procedure: Neuroprotective effect of 3,2′-spiro-pyrrolo-2-oxindole derivative (SI-86 compound) was studied on IUD model of moderate severity modeled under propofol anesthesia (60 mg/kg intraperitoneally (ip)) by autoblood administration into the brain internal capsule (stereotactic coordinates of the projection: H=7.0 mm, L=3.0 mm, A=1.5 mm from bregma) ([…]) (Method for reproduction of intracerebral hemorrhage in rats/O. K. Yarosh, S. V. Kyrychenko, S. P. Halimonchyk [et al.]//Circulation and hemostasis.-2005.-No. 1.-P. 77-81). The chosen model allows to reproduce clinical pattern of […] and is adequate for clinical study of potential neuroprotective agents.
As comparators the following drugs were used: mexydol (“Mexydol” UC Pharmasoft, Russia), 100 mg/kg; citicoline (“Somazina” Ferrer International, SA, Spain), 250 mg/kg; aktovegin (“Aktovegin”, Nycomed, Austria), 16 mg/kg pyracetam (“Pyracetam” Darnitsa, Ukraine), 400 mg/kg. According to the latest clinical guidelines regarding the treatment of patients with CVA approved by the Ministry of Health of Ukraine (Order No. 602 dated 3 Aug. 2012), all these drugs are allowed to be included into schemes for intensive patients therapy with CVA as neuroprotective agents. They were used at recommended doses for preclinical studies (McGrow C. P. Experimental Cerebral Infarction Effects of Pentobarbital in Mongolian Gerbils/C. P. McGrow//Arch. Neurol.-1977.-Vol. 34, No. 6.-P. 334-336). Experimental therapy of acute cerebral ischemia with SI-86 compound and comparator started 1 hour after IUD once a day for 21 days. The SI-86 derivative was investigated in conventionally effective dose of 10 mg/kg […] (iv)-dose that according to the results of our previous study provides maximum antihypoxic activity of SI-86 compound. Reference drugs were injected intraperitoneally (ip). Rats of control pathology group were injected by autoblood and as therapy 0.9% NaCI solution was administered calculated for 2 ml/kg […].
Evaluation of the ability of animals to learn and memorize of aversive stimulus was examined in the test of conditioned response of passive avoidance (CRPA). The technique is based on innate rat instinct to limited shadowy space. The study in rats was conducted in two-compartment unit consisted of two sections—light and dark. An animal was arranged into light compartment, fixing latency time for entering into the dark compartment, wherein rat received current irritation and ran in the light compartment. CRPA retention was tested every other day under latency time change of rat entering into the dark compartment. Also the number of animals was noted not fully entered the dark chamber. Cerebroprotective efficiency criteria of studied compounds were also animal death term (days) and their mortality rate (in %).

liver and pancrea cells = assay: Pro/antiapoptosis properties, electrophoresis of DNA fragments; settings: intact male Wistar rats; 50 mg/kg
Procedure: The assessment of pro/antiapoptotosis properties of substances was carried in intact male rats of Wistar line. The test substance were administered for 2 weeks by means of a probe in aqueous suspension containing Tween-80 at a dose of 50 mg/kg of body weight. The animals were euthanized by cervical vertebrae translocation 24 hours after the experiment. The identification of apoptosis of liver and pancrea cells was performed using electrophoretic method. […] Cell necrosis conditioned the “smeared” nature of DNA migration zone. The luminescence band of intact DNA was in the starting area.
The expression of apoptosis manifestations was assessed by registration of DNA fragments via electrophoresis.

[3] = test system: neuron-specific enolase (NSE); assay: Neuron-specific enolase (NSE) activity in rats with bilateral carotid occlusion (ELISA); settings: BCO; for NSE activity (dynamics of neurodestructive changes): n = 7
Procedure: The derivative of 3,2′-spiro-pyrrolo-2-oxindole was studied in conventionally effective dose of 10 mg/kg […] (iv)—dose that by the results of our previous study provided maximum antihypoxic activity of the SI-86compound. Reference drugs were injected intraperitoneally (ip). […] BCO was made to rats of control pathology and as therapy 0.9% NaCI solution was administered calculated for 2 ml/kg ip.
Pseudooperative rats were exposed to all interventions (anesthesia, skin incision, dissection of vessels) except arteries ligation that leveled traumatic effect of experimental conditions.
To determine neurospecific enolase, specific marker of cerebral ischemia,—to the period (4 th and 21 st day of CVA) in rat's blood was sampled by sagittal sinus puncture (0.2-0.4 ml). NSE activity was measured by ELISA using a set NSE EIA KIT (DAI, USA) on the instrument of the company “Hipson” (Czech Republic).

[4] = day 4, SI-86 10 mg/kg iv, citocoline 250 mg/kg ip

Structure (SMILES): CSCC[C@@H]1N[C@@]2(C(=O)Nc3ccccc32)[C@@H]2C(=O)N(c3ccc(C)cc3)C(=O)[C@H]12 [SI-86, 5′-(4-Methylphenyl)-3′-[2-(methylthio)ethyl]-3a′,6a′-dihydro-2′H-spiro[indole-3,1′-pyrrolo[3,4-c]pyrrol]-2,4′,6′(1H,3′H,5′H)-trione]
- Effect (died/total) (rats; 3500 mg/kg single administration): all animals survived and 0/4
- rats died (rats; 4000 mg/kg): 25%
- Effect (died/total) (rats; 4000 mg/kg single administration): 1/4
- toxicity class according to Hodge and Sterner classification (rats; rat, in vivo): IV class of toxicity
- LD50 at 2 weeks (Acute toxicity in rats): 501 to 5000 mg/kg
- NSE activity (dynamics of neurodestructive changes) [1, 4]: 1.065 ± 0.019*^#•
- NSE activity (dynamics of neurodestructive changes) ([1]; day 21, same doses): 0.260 ± 0.014*^#•
- enzyme activity decreased in relation to the control pathology group ([1]; 96 hours): 2.6 times
- enzyme activity decreased in relation to the control pathology group ([1]; 21 days): 3.6 times
- efficiency in reducing NSE better than citocoline ([1]; acute period): 17.6%
- efficiency in reducing NSE better than citocoline ([1]; recovery period): 15.9%
- Latent period for entrance into dark compartment, prior study ([2]; SI-86 10 mg/kg iv, mexydol 100, citocoline 250, actovegin 16, pyracetam 400 mg/kg ip): 9.50 ± 0.34°*^#•$ s
- Latent period for entrance into dark compartment, 24 hours after study ([2]; same doses): 127.10 ± 2.71°*^#•$ s
- level of apoptosis (liver and pancrea cells): closed to that of control group
- enzyme activity decreased in relation to the control pathology group ([3]; 96 hours): 2.03 times
- enzyme activity decreased in relation to the control pathology group ([3]; 21 days): 3.84 times
- effectiveness in reducing NSE better than citocoline ([3]; acute period): 1.6 times
- NSE activity (dynamics of neurodestructive changes) [3, 4]: 0.61 ± 0.004*^#•
- NSE activity (dynamics of neurodestructive changes) ([3]; day 21, same doses): 0.204 ± 0.015*^#•
- effectiveness in reducing NSE better than citocoline ([3]; recovery period): 1.9 times
